The numbers were not newly measured in patent publication US20070141015A1, “TOPICAL ADMINISTRATION CARRIER COMPOSITION AND THERAPEUTIC FORMULATIONS COMPRISING SAME” (priority 2005, published 2007), which cites them from elsewhere.

The mark [1] stands for this setting: antihypertensive use, chronic 30 mg/day.

For `Nc1cc(N2CCCCC2)nc(N)[n+]1[O-]` [Minoxidil], for the setting “antihypertensive use, after 5 mg starting dose”, the “1 hour peak plasma level” value is “Antihypertensive: 1 hour peak after 5 mg starting dose: 60 ng/mL plasma;”. Further, under setting [1], the steady-state peak level was 250 ng/mL and the steady-state trough level was 40 ng/mL. Further, under “topical hair growth stimulant, 1 mL 2% b.i.d. dose”, the plasma level result is “Less than 2-30 ng/ML plasma”.
